Data published in ChEMBL document CHEMBL1201862, “PubChem BioAssay data set” (2004).
The source made the active and inactive calls.

Tests used:
[1] = target: Induced myeloid leukemia cell differentiation protein Mcl-1 (Homo sapiens, UniProt Q07820); format: functional
[2] = target: T1, Endoribonuclease toxin MazF (Escherichia coli K-12, UniProt P0AE70); assay: MazF toxin RNase activators, dose response, biochemical, fluorescence, single-stranded RNA substrate, uHTS hits (AID 588481); format: functional
T1 sequence (P0AE70 whole entry): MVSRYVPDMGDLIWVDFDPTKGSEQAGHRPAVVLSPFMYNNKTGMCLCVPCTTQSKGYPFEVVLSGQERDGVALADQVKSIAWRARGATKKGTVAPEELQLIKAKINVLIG

[3] = target: T1, Endoribonuclease toxin MazF; assay: fluorescent RNA oligo signal without MazF, dose response, counter-screen for MazEF activator project, biochemical, fluorescence, single-stranded RNase substrate (AID 588502); format: functional
INS1 = assay: beta cell apoptosis inhibitors, cytokine rescue, dose response, luminescence, retest (AID 449756); format: functional, cell-based; details: Rattus norvegicus;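 further: cell death triggered by IL-1 beta plus TNF-alpha plus IFN-gamma mixture; protective hits raise ATP signal compared with cytokine alone wells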
Protein Wnt-3a = Protein Wnt-3a (Mus musculus, UniProt P27467); assay: Wnt3a-driven reporter signaling inhibition, dose response, selectivity assay for Gli-SUFU antagonist project, Wnt-LIGHT cells, luminescence (AID 651570); format: functional; details: read-out: IC50_Mean;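 further: Wnt-LIGHT reporter cells stimulated with conditioned medium from Wnt3a-producing cells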
Chain of Protein Wnt-3a (P27467 whole entry): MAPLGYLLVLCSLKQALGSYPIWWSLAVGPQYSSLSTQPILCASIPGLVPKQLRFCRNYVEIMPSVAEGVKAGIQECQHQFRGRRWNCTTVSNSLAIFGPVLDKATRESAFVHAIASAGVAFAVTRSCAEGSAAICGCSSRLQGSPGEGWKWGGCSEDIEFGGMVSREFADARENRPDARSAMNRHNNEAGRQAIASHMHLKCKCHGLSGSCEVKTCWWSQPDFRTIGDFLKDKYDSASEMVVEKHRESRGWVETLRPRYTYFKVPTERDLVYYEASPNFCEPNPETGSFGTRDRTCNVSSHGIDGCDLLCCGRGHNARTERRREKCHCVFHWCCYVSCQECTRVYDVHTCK

H9c2 = assay: cells; format: functional, cell-based; details: Rattus norvegicus, H9c2, Myocardium;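 further: confirmatory concentration-response retest of ultra-high-throughput screening hits for modulation of myocardial damage; cell death induced by hydrogen peroxide oxidative stress; compound pretreatment for 60 min then peroxide exposure for 2 h; potency is for protecting the cells against peroxide damage rather than for killing them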
Beta Lactamase = Beta Lactamase (Pseudomonas aeruginosa, UniProt Q932Y6); assay: beta-lactamase reporter inhibitor potency, dose response, artefact control for TLR9-MyD88 binding inhibitor project, BLA reporter cells, FRET fluorescence (AID 588341); format: cell-based;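 further: cell based assay in CHO-K1 cells stably expressing beta-lactamase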
Chain of Beta Lactamase (Q932Y6 whole entry, the tested form may be a part): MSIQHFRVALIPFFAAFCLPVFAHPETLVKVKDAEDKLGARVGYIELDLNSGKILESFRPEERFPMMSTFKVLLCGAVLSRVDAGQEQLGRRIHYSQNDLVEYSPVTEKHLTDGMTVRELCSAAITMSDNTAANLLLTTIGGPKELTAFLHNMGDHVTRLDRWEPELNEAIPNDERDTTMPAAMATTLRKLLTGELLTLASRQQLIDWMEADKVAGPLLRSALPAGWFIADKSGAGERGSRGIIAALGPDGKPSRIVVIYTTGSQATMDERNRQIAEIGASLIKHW

CHO = assay: cytotoxicity in TLR9-MyD88 CHO cells, dose response, cytotoxicity control for TLR9-MyD88 binding inhibitor project, cell-based, luminescence (AID 588339); format: functional, hamster; details: Cricetulus griseus;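 further: CHO cells stably coexpressing TLR9 and MyD88 fusions from primary screen; compound exposure lasted 48 hours before viability readout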
[4] = target: 26S proteasome non-ATPase regulatory subunit 14 (Homo sapiens, UniProt O00487); assay: inhibition of proteasome subunit RPN11 – biochemical, fluorescence polarization, uHTS hits, confirmation (AID 602368); format: functional
Chain of 26S proteasome non-ATPase regulatory subunit 14 (O00487 whole entry): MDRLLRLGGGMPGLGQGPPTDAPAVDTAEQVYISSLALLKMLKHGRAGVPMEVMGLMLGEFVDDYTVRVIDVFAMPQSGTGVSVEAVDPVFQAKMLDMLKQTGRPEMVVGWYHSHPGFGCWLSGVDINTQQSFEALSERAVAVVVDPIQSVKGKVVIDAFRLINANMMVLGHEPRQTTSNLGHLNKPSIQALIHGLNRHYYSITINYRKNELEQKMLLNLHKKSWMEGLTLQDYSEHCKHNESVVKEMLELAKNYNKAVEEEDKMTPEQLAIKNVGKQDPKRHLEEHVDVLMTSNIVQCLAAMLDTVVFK

[5] = target: 72 kDa type IV collagenase (Homo sapiens, UniProt P08253); assay: Dose Response validation of uHTS RPN11 inhibitor hits using a MMP-2 Fluorescence assay.; format: functional
Chain of 72 kDa type IV collagenase (P08253 whole entry): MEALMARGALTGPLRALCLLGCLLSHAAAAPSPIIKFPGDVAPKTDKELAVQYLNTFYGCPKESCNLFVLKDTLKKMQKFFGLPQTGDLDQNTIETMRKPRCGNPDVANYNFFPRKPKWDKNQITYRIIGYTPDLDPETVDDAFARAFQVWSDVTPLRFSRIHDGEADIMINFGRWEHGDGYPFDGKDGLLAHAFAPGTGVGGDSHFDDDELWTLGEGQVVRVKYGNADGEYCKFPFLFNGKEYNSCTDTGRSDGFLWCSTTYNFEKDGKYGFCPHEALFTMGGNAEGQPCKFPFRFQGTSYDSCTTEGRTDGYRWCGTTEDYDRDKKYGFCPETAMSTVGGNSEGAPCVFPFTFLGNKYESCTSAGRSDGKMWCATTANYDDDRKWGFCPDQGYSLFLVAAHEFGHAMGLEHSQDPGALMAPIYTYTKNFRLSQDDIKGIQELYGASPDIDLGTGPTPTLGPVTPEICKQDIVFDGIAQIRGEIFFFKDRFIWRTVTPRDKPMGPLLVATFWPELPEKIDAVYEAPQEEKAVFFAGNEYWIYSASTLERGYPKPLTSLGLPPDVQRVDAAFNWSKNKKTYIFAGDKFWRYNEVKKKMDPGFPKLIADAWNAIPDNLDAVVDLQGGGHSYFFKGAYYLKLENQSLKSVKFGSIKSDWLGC

Prothrombin = Prothrombin (Bos taurus, UniProt P00735); assay: thrombin inhibition, dose response, biochemical, fluorescence polarization, uHTS hits (AID 602369); format: functional
[6] = target: T2, Corticotropin-releasing factor receptor 2/Corticotropin-releasing factor-binding protein (Homo sapiens, UniProt P24387+Q13324); assay: activators of CRF receptor 2 with binding protein – uHTS hits, confirmation (AID 602473); format: functional; details: read-out: EC50_Mean
T2 sequence (Q13324 whole entry): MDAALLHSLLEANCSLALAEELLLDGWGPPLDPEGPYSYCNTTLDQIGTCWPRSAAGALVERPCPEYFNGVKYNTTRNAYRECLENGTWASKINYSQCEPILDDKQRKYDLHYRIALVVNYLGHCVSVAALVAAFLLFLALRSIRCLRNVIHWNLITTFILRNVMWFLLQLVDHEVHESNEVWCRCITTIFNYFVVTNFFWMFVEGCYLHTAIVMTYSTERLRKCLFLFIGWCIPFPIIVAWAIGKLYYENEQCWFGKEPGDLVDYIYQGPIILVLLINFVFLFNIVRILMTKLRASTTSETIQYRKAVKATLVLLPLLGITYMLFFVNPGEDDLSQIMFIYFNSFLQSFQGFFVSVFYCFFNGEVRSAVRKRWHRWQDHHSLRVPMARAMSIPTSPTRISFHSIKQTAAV
T2 sequence (P24387 whole entry): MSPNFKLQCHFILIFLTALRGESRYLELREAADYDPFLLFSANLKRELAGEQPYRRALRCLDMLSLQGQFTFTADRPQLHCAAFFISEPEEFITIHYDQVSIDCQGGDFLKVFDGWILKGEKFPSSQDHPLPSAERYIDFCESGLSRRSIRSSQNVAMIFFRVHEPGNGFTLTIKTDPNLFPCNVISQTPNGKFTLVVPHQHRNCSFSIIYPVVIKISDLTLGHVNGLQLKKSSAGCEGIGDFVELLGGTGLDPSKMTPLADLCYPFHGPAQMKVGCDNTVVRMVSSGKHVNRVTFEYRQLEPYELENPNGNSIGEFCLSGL

[7] = target: T2, Corticotropin-releasing factor receptor 2/Corticotropin-releasing factor-binding protein; assay: Dose Response confirmation of uHTS hits for small molecule antagonists of the CRF-binding protein and CRF-R2 receptor complex.; format: functional; details: read-out: IC50_Mean
[8] = CRF-BP/CRF-R2 complex antagonists, dose response, cell-based, uHTS hits, 384-well (AID 651639); format: functional, Homo sapiens; details: read-out: IC50_Mean
Streptococcus = assay: Group A Streptococcus viability loss, dose response, counter-screen for streptokinase expression inhibitor project, luminescence, BacTiterGlo (AID 1915); format: functional, organism-based;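 further: potency for reduction of bacterial viability or growth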
[9] = system: Streptococcus sp. 'group A'; assay: growth inhibition of control SK(-) GAS strain, dose response, counter-screen for streptokinase expression inhibitor project, luminescence, kanamycin, BacTiterGlo, confirmation (AID 1900); format: functional, organism-based
[10] = miR-122 activators in hepatoma reporter cells, dose response, cell-based, Huh7 psiCHECK-miR122, Renilla luciferase, cherry-picked (AID 651956); format: functional;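 further: huh7 hepatoma cells stably carrying a psiCHECK-2 miR-122 sensor plasmid; renilla luciferase signal reporting endogenous miR-122 activity after 48 h compound exposure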
Estrogen receptor = target: T3, Estrogen receptor (Homo sapiens, UniProt P03372);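 further: potency for inhibiting coactivator peptide recruitment to the receptor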
T3 sequence (P03372 whole entry): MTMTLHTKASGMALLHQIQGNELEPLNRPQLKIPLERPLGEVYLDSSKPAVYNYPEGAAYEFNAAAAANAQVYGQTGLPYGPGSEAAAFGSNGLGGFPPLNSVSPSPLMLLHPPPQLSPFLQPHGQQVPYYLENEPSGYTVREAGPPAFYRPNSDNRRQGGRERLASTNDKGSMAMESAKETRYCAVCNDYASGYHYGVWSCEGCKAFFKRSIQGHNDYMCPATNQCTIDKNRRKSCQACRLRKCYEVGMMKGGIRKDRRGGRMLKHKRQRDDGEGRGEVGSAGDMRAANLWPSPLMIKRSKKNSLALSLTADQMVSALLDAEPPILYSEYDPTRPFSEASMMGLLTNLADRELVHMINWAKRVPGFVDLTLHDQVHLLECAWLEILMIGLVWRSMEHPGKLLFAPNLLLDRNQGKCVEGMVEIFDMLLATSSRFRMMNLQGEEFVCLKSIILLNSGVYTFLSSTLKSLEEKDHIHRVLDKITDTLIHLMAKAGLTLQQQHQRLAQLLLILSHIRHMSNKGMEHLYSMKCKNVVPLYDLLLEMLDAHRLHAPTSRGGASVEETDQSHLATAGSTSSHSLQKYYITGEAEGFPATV

Chain of Induced myeloid leukemia cell differentiation protein Mcl-1 (Q07820 whole entry): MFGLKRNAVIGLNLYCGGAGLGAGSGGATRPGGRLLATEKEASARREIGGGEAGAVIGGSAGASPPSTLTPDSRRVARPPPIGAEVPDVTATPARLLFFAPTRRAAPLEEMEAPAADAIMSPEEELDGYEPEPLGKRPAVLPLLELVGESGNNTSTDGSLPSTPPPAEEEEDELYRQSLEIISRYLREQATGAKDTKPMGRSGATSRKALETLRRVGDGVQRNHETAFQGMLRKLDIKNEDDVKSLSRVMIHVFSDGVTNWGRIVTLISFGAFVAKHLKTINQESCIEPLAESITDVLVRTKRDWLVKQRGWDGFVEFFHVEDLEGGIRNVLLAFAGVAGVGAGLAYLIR

COc1ccc(-c2ccc(/C=C3/C(=N)N4C=CSC4=NC3=O)o2)c([N+](=O)[O-])c1
IC50 [1]: 1.52 µM (active) | EC50 [2]: 19.6 µM (active) | EC50 [3]: > 99 µM (inactive)

Cc1sc2ncnc(NCc3cccs3)c2c1C
AC50 (INS1): 4.79 µM (active) | IC50 (Protein Wnt-3a): 1.81 µM (active)

COc1cc2oc3cc(C#Cc4ccc(N)cc4)ccc3c(=O)c2cc1OC
IC50 (H9c2): > 79 µM (inactive) | IC50 (Beta Lactamase): 3.6 µM (active) | IC50 (CHO): > 49.7 µM (inactive)

O=C(NCc1ccc(F)cc1)c1cccc2c1C(=O)c1ccc(N3CCOCC3)cc1S2(=O)=O
IC50 [4]: 16.6 µM (active) | IC50 [5]: > 100 µM (inactive) | IC50 (Prothrombin): 24.1 µM (active)

Cc1noc(C)c1CSCc1ccc(Cl)cc1
EC50 [6]: > 53 µM (inactive) | IC50 [7]: 35.6 µM (active) | IC50 [8]: > 20 µM (inactive)

CO/N=C(/C(=O)N[C@@H]1C(=O)N2C(C(=O)O)=CCS[C@H]12)c1cnc(N)s1
EC50 (Streptococcus): < 0.06 µM (active) | EC50 [9]: < 0.06 µM (active) | IC50 [4]: 1.33 µM (active) | IC50 [5]: 0.122 µM (active) | IC50 (Prothrombin): 54.1 µM (active)

C[C@@H]1CN([C@@H](C)CO)S(=O)(=O)c2ccc(C3=CCCCC3)cc2O[C@@H]1CN(C)C(=O)Cc1ccncc1
AC50 [10]: 6.22 µM (active)

Cc1c(/C=N/n2cnnc2)c2ccccc2n1CCOc1ccc(Cl)cc1
EC50 [2]: > 99 µM (inactive) | EC50 [3]: > 99 µM (inactive) | IC50 (Estrogen receptor): > 50 µM (not active)
